The text below walks through data of US9815796B2 (Merck Sharp & Dohme Corp., priority 2013, dated 2017).

The target of one test is Rhesus PDE2A3 (Macaca mulatta, UniProt B3VTJ2). Kind of test: PDE2 fluorescence polarization (IMAP FP) inhibition assay, rhesus enzyme. The following applies: Rhesus PDE2, Lab A; read-out: Rhesus PDE2 Ki (nM) - Lab A. The format is biochemical, rhesus macaque. In short, it runs like this: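 IMAP FP (mP from parallel and perpendicular fluorescence against substrate-only control) was read ≥1 h after adding binding reagent. The preceding 60 min room-temperature reaction contained FAM-cAMP (50 nM) and cGMP (1 uM) in pH 7.2 Tris buffer with MgCl2 and DTT. Enzyme was supernatant of sonicated AD293 cells expressing rhesus PDE2A3; compounds were 3-fold titrated, DMSO 1% final.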
Rhesus PDE2A3, sequence (B3VTJ2 1-941): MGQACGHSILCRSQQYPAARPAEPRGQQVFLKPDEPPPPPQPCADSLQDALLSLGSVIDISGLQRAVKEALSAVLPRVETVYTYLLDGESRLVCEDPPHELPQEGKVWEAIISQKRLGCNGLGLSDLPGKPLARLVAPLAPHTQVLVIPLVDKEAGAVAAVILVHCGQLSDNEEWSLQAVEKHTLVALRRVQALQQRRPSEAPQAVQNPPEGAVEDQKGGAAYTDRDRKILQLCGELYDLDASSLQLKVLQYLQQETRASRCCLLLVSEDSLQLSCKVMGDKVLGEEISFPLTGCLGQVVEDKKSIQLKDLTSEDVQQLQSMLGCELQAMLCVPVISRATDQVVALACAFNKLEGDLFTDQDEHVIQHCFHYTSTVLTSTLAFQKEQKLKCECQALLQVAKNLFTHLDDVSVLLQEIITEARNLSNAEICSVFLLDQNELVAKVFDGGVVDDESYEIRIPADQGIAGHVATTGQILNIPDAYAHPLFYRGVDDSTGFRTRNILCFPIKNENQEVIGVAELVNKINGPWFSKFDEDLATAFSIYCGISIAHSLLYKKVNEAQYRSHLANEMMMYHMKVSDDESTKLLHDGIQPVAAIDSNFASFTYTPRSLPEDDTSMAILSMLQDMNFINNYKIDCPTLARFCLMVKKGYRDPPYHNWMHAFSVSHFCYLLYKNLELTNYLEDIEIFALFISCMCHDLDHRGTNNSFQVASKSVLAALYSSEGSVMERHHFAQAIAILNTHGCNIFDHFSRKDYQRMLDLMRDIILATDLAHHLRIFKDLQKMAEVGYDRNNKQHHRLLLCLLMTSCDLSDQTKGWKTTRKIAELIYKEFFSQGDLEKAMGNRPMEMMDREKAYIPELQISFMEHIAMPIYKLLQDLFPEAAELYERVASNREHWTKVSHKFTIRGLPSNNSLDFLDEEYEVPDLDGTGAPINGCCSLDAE
For orientation: Fluorescence polarisation rises when a labelled molecule tumbles more slowly, as on binding a larger partner.
By Ki is commonly meant the equilibrium dissociation constant of an inhibitor or competing ligand from its target. Regarding `O=C(NCc1ccc(C2CC2)cc1)c1cc(=O)[nH]c(C2CC2)n1` [Example 221, 2-cyclopropyl-N-(4-cyclopropylbenzyl)-6-oxo-1,6-dihydropyrimidine-4-carboxamide], the Ki was found to be 681 nM.

In a further test the target is human PDE2A1 (Homo sapiens (Human), UniProt O00408). Kind of test: IMAP FP PDE selectivity panel, human PDE2A1. The format is biochemical. The settings on record: Human PDE2, Lab B; read-out: Human PDE2 Ki (nM) - Lab B. The protocol: Selectivity for PDE2, as compared to other PDE families, was assessed using the IMAP® technology. Human PDE 10A2 enzyme was prepared from cytosolic fractions of transiently transfected HEK cells. All other PDE's were GST Tag human enzyme expressed in insect cells and were obtained from BPS Bioscience (San Diego, Calif.): PDE1A (Cat#60010), human PDE2A1 (Cat#60020), PDE3A (Cat#60030), PDE4A1A (Cat#60040), PDE5A1 (Cat#60050), PDE6C (Cat#60060), PDE7A (Cat#60070), PDE8A1 (Cat#60080), PDE9A2 (Cat#60090), PDE11A4 (Cat#60110).
human PDE2A1, sequence (O00408 other isoform, or with tags, fused parts or gaps): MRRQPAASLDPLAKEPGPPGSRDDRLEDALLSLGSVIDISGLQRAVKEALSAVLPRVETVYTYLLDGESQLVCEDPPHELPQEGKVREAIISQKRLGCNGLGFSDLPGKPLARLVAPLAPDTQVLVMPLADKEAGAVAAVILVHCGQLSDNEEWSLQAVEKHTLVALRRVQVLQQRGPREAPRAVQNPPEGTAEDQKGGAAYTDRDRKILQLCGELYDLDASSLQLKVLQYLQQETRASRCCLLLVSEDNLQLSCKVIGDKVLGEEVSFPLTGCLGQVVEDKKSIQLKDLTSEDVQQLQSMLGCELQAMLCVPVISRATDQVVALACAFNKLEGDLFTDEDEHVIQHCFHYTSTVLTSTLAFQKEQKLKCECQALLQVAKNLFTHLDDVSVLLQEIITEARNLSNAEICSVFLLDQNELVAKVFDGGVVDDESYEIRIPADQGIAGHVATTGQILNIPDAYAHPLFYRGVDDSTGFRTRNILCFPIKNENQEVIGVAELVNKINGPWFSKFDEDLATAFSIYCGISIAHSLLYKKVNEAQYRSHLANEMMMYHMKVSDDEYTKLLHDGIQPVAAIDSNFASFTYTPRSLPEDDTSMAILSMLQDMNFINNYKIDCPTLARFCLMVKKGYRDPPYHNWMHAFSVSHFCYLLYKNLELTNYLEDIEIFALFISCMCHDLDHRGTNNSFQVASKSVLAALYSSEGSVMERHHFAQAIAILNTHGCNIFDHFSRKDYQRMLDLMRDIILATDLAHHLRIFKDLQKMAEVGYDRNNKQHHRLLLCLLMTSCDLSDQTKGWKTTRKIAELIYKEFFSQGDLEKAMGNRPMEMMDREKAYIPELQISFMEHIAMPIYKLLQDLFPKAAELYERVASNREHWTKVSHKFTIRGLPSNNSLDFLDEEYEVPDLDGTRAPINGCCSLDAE
Assays for PDE 1 through 11 were performed in parallel at room temperature in 384-well microtiter plates with an incubation volume of 20.2 μL. Solutions of test compounds were prepared in DMSO and serially diluted with DMSO to yield 30 μL of each of ten solutions differing by 3-fold in concentration, at 32 serial dilutions per plate. […] A Labcyte POD 810 (Labcyte, Sunnyvale, Calif.) was used to dispense 200 nL from each well of the titration plate to make eleven copies of the assay plate for each titration, one copy for each PDE enzyme. A solution of each enzyme (dilution from aliquots, sufficient to produce 20% substrate conversion) and a separate solution of FAM-labeled cAMP or FAM-labeled cGMP from Molecular Devices (Sunnyvale, Calif., product # R7506 or cGMP#R7508), at a final concentration of 50 nM were made in the assay buffer (10 mM Tris HCl, pH 7.2, 10 mM MgCl2, 0.05% NaN3 0.01% Tween-20, and 1 mM DTT). Note that the substrate for PDE2 is 50 nM FAM cAMP containing 1000 nM of cGMP. The enzyme and the substrate were then added to the assay plates in two consecutive additions of 10 μL and then shaken to mix. The reaction was allowed to proceed at room temperature for 60 minutes. A binding solution was then made from the kit components, comprised of 80% Solution A, 20% Solution B and binding reagent at a volume of 1/600 the total binding solution. The enzymatic reaction was stopped by addition of 60 μL of the binding solution to each well of the assay plate. The plates were sealed and shaken for 10 seconds. The plates were incubated at room temperature for one hour, then the parallel and perpendicular fluorescence was measured using a Tecan Genios Pro plate reader (Tecan, Switzerland). The apparent inhibition constants for the compounds against all 11 PDE's was determined from the parallel and perpendicular fluorescent readings as described for PDE10 FP assay using the following apparent KM values for each enzyme and substrate combination: PDE1A (FAM cGMP) 70 nM, human PDE2A1 (FAM cAMP) 10,000 nM, PDE3A (FAM cAMP) 50 nM, PDE4A1A (FAM cAMP) 1500 nM, PDE5A1 (FAM cGMP) 400 nM, PDE6C (FAM cGMP) 700 nM, PDE7A (FAM cAMP) 150 nM, PDE8A1 (FAM cAMP) 50 nM, PDE9A2 (FAM cGMP) 60 nM, PDE10A2 (FAM cAMP) 150 nM, PDE11A4 (FAM cAMP) 1000 nM. The intrinsic PDE2 inhibitory activity of a compound which may be used in accordance with the present invention may be determined by these assays.
For the compound `CC1([C@@H](NC(=O)c2cc(=O)[nH]c(-c3ncccn3)n2)c2ccc3c(c2)OC(F)(F)O3)CC1` [Example 585, N-[(R)-(2,2-difluoro-1,3-benzodioxol-5-yl)(1-methylcyclopropyl)methyl]-6-oxo-1,6-dihydro-2,2′-bipyrimidine-4-carboxamide], the Ki was found to be 39 nM. Turning to `CC(C)(C)C(NC(=O)c1cc(=O)[nH]c(-c2ncco2)n1)c1ccc(C(F)(F)F)cc1` (single isomer, unassigned) [Example 682, (R)- or (S)-N-(2,2-dimethyl-1-(4-(trifluoromethyl)phenyl)propyl)-2-(oxazol-2-yl)-6-oxo-1,6-dihydropyrimidine-4-carboxamide], the Ki stood at 48 nM.

In the case of `Cc1nc(C(=O)NC(C)(C)c2cc(F)c(C(F)(F)F)cc2Cl)cc(=O)[nH]1` [Example 659, N-{1-[2-chloro-5-fluoro-4-(trifluoromethyl)phenyl]-1-methylethyl}-2-methyl-6-oxo-1,6-dihydropyrimidine-4-carboxamide], the Ki came out at 139 nM. The same measure, in the same setting: as for `CC(C)(C)[C@@H](NC(=O)c1cc(=O)[nH]c(-c2ncccn2)n1)c1ccc(OC(F)F)c(F)c1` [Example 589, N-{(1R)-1-[4-(difluoromethoxy)-3-fluorophenyl]-2,2-dimethylpropyl}-6-oxo-1,6-dihydro-2,2′-bipyrimidine-4-carboxamide], the figure is 22 nM; as for `Cc1nc(C(=O)N[C@@H](c2ccc(C(F)F)c(F)c2)C(C)C)cc(=O)[nH]1` [Example 650, N-{(1R)-1-[4-(difluoromethyl)-3-fluorophenyl]-2-methylpropyl}-2-methyl-6-oxo-1,6-dihydropyrimidine-4-carboxamide], 33 nM; as for `CC(C)[C@@H](NC(=O)c1cc(=O)[nH]c(-c2ncccn2)n1)c1ccc2c(c1)OC(F)(F)O2` [Example 592, N-[(1R)-1-(2,2-difluoro-1,3-benzodioxol-5-yl)-2-methylpropyl]-6-oxo-1,6-dihydro-2,2′-bipyrimidine-4-carboxamide], 15 nM. For `Cc1nc(C(=O)NC2(c3ccc(OC(F)F)cc3)CC2)cc(=O)[nH]1` [Example 628, N-{1-[4-(difluoromethoxy)phenyl]cyclopropyl}-2-methyl-6-oxo-1,6-dihydropyrimidine-4-carboxamide], the Ki came to 87 nM. The same measure, in the same setting: the result for `O=C(N[C@@H](c1ccc(C2CC2)cc1)C1CC1)c1cc(=O)[nH]c(-c2ccccc2)n1` [Example 544, N-[(R)-cyclopropyl(4-cyclopropylphenyl)methyl]-6-oxo-2-phenyl-1,6-dihydropyrimidine-4-carboxamide] reads 2.4 nM; that for `Cc1nc(C(=O)N[C@@H](c2ccc3c(c2)OC(F)(F)O3)C(C)(C)C)cc(=O)[nH]1` [Example 633, N-[(1R)-1-(2,2-difluoro-1,3-benzodioxol-5-yl)-2,2-dimethylpropyl]-2-methyl-6-oxo-1,6-dihydropyrimidine-4-carboxamide], 16 nM. Same read-out and setting: as for `CC(C)(C)[C@@H](NC(=O)c1cc(=O)[nH]c(-c2ccccc2)n1)c1ccc(CC(F)(F)F)cc1` [Example 537, N-{(1R)-2,2-dimethyl-1-[4-(2,2,2-trifluoroethyl)phenyl]propyl}-6-oxo-2-phenyl-1,6-dihydropyrimidine-4-carboxamide], the figure is 2.4 nM; as for `Cc1nc(C(=O)NC(C)c2ccc(C3(C(F)(F)F)CC3)cc2)cc(=O)[nH]1` (single isomer, unassigned) [Example 687, (R)- or (S)-2-methyl-6-oxo-N-(1-(4-(1-(trifluoromethyl)cyclopropyl)phenyl)-ethyl)-1,6-dihydropyrimidine-4-carboxamide], 108 nM; as for `CC(C)(C)[C@@H](NC(=O)c1cc(=O)[nH]c(-c2ccccc2)n1)c1ccc(S(F)(F)(F)(F)F)cc1` [Example 540, N-{(1R)-2,2-dimethyl-1-[4-(pentafluoro-λ^6-sulfanyl)phenyl]propyl}-6-oxo-2-phenyl-1,6-dihydropyrimidine-4-carboxamide], 1.6 nM. The same measure, in the same setting: as for `COc1cc(C(F)(F)F)ccc1C(C)(C)NC(=O)c1cc(=O)[nH]c(-c2ncccn2)n1` [Example 572, N-{1-[2-methoxy-4-(trifluoromethyl)phenyl]-1-methylethyl}-6-oxo-1,6-dihydro-2,2′-bipyrimidine-4-carboxamide], the figure is 741 nM; as for `Cc1nc(C(=O)NC(C)c2ccc(C(F)(F)C(F)(F)F)cc2)cc(=O)[nH]1` (single isomer, unassigned) [Example 684, (S)- or (R)-2-methyl-6-oxo-N-(1-(4-(perfluoroethyl)phenyl)ethyl)-1,6-dihydropyrimidine-4-carboxamide], above 2960 nM; as for `O=C(NC1(c2ccc3c(c2)OC(F)(F)O3)CC1)c1cc(=O)[nH]c(-c2ccccc2)n1` [Example 535, N-[1-(2,2-difluoro-1,3-benzodioxol-5-yl)cyclopropyl]-6-oxo-2-phenyl-1,6-dihydropyrimidine-4-carboxamide], 24 nM.

In the case of `CC(NC(=O)c1cc(=O)[nH]c(C2CC2)n1)c1ccc(C2(C(F)(F)F)CC2)cc1` (single isomer, unassigned) [Example 689, (R)- or (S)-2-cyclopropyl-6-oxo-N-(1-(4-(1-(trifluoromethyl)cyclopropyl)phenyl)-ethyl)-1,6-dihydropyrimidine-4-carboxamide], the Ki turned out to be 67 nM. `Cc1nc(C(=O)NC(c2ccc(S(F)(F)(F)(F)F)cc2F)C(C)(C)C)cc(=O)[nH]1` (single isomer, unassigned) [Example 721, (S)- or (R)-N-(1-(2-fluoro-4-(pentafluoro-λ^6-sulfanyl)phenyl)-2,2-dimethylpropyl)-2-methyl-6-oxo-1,6-dihydropyrimidine-4-carboxamide]: the Ki was around 1220 nM. Turning to `CC(C)(NC(=O)c1cc(=O)[nH]c(-c2ncccn2)n1)c1ccc(SC(F)(F)F)cc1` [Example 577, N-(1-methyl-1-{4-[(trifluoromethyl)sulfanyl]phenyl}ethyl)-6-oxo-1,6-dihydro-2,2′-bipyrimidine-4-carboxamide], the Ki is 287 nM. In the case of `Cc1nc(C(=O)N[C@]2(c3ccc(C(F)(F)F)cc3)C[C@@H]2C)cc(=O)[nH]1` (single isomer, unassigned) [Example 670, 2-methyl-N-{2-methyl-1-[4-(trifluoromethyl)phenyl]cyclopropyl}-6-oxo-1,6-dihydropyrimidine-4-carboxamide], the Ki turned out to be 28 nM. Still for that read-out and setting: as for `Cc1nc(C(=O)N[C@@H](c2ccc(OC(F)(F)F)cc2)C(C)(C)O)cc(=O)[nH]1` [Example 724, N-{(1S)-2-hydroxy-2-methyl-1-[4-(trifluoromethoxy)phenyl]propyl}-2-methyl-6-oxo-1,6-dihydropyrimidine-4-carboxamide], the figure is 3.1 nM; as for `CC(C)(C)[C@@H](NC(=O)c1cc(=O)[nH]c(-c2ccccc2)n1)c1ccc(C(F)(F)F)c(F)c1` [Example 538, N-{(1R)-1-[3-fluoro-4-(trifluoromethyl)phenyl]-2,2-dimethylpropyl}-6-oxo-2-phenyl-1,6-dihydropyrimidine-4-caboxamide], 1.4 nM.
